Test results as given in the NIST ThermoML archive (doi:10.1016/j.jct.2012.04.018).
“And” between values parts separate entries of the source, which are not always exact repeats. Equal entries are not always repeated.

What was measured:
[1] = refractive index (other wavelength) (dimensionless); xn = mol fraction of the nth substance listed; conditions: 290.9 K, 101 kPa, Liquid, Wavelength=632.8 nm, He-Ne laser
[2] = heat capacity at constant pressure per volume; xn = mol fraction of the nth substance listed; conditions: 101 kPa, Liquid, DSC, calvet, x2 = 0.44

N#Cc1ccccc1 [benzonitrile] + CCCCCCCCCCC
Conditions | heat capacity | refractive index
[1], x2 = 0.133 | – | 1.5005
[1], x2 = 0.212 | – | 1.4877
[1], x2 = 0.336 | – | 1.4708
[1], x2 = 0.42 | – | 1.4607
[1], x2 = 0.512 | – | 1.4513
[1], x2 = 0.606 | – | 1.443
[1], x2 = 0.704 | – | 1.4351
[1], x2 = 0.799 | – | 1.4285
[1], x2 = 0.902 | – | 1.4222
[2], 286.54 K | 1846500 J/K/m3 | –
[2], 286.76 K | 1854000 J/K/m3 | –
[2], 286.99 K | 1862200 J/K/m3 | –
[2], 287.22 K | 1857300 J/K/m3 | –
[2], 287.45 K | 1862800 J/K/m3 | –
[2], 287.68 K | 1867600 J/K/m3 | –
[2], 287.91 K | 1870300 J/K/m3 | –
[2], 288.14 K | 1878500 J/K/m3 | –
[2], 288.37 K | 1879100 J/K/m3 | –
[2], 288.6 K | 1887700 J/K/m3 | –
[2], 288.83 K | 1896600 J/K/m3 | –
[2], 288.94 K | 1895600 J/K/m3 | –
[2], 289.06 K | 1899000 J/K/m3 | –
[2], 289.17 K | 1913500 J/K/m3 | –
[2], 289.29 K | 1889000 J/K/m3 | –
[2], 289.4 K | 1931900 J/K/m3 | –
[2], 289.43 K | 1910800 J/K/m3 | –
[2], 289.46 K | 1918000 J/K/m3 | –
[2], 289.5 K | 1946800 J/K/m3 | –
[2], 289.53 K | 1960500 J/K/m3 | –
[2], 289.56 K | 1952300 J/K/m3 | –
[2], 289.6 K | 1953700 J/K/m3 | –
[2], 289.63 K | 1973800 J/K/m3 | –
[2], 289.67 K | 1984300 J/K/m3 | –
[2], 289.7 K | 1990700 J/K/m3 | –
[2], 289.74 K | 1995400 J/K/m3 | –
[2], 289.75 K | 2003100 J/K/m3 | –
[2], 289.77 K | 2011400 J/K/m3 | –
[2], 289.78 K | 2022500 J/K/m3 | –
[2], 289.79 K | 2035800 J/K/m3 | –
[2], 289.8 K | 2046300 J/K/m3 | –
[2], 289.81 K | 2053900 J/K/m3 | –
[2], 289.82 K | 2063600 J/K/m3 | –
[2], 289.83 K | 2084100 J/K/m3 | –
[2], 289.85 K | 2111800 J/K/m3 | –
[2], 289.86 K | 2155800 J/K/m3 and 2141800 J/K/m3 and 2104500 J/K/m3 | –
[2], 289.87 K | 2067700 J/K/m3 and 2029900 J/K/m3 and 1997600 J/K/m3 | –
[2], 289.88 K | 1943900 J/K/m3 and 1858200 J/K/m3 | –
[2], 289.89 K | 1823500 J/K/m3 | –
[2], 289.9 K | 1809500 J/K/m3 | –
[2], 289.92 K | 1795800 J/K/m3 | –
[2], 289.93 K | 1786900 J/K/m3 | –
[2], 289.94 K | 1780500 J/K/m3 | –
[2], 289.95 K | 1778700 J/K/m3 | –
[2], 289.98 K | 1770500 J/K/m3 | –
[2], 290.01 K | 1757500 J/K/m3 | –
[2], 290.04 K | 1756200 J/K/m3 | –
[2], 290.06 K | 1746900 J/K/m3 | –
[2], 290.09 K | 1748200 J/K/m3 | –
[2], 290.12 K | 1747000 J/K/m3 | –
[2], 290.15 K | 1739100 J/K/m3 | –
[2], 290.18 K | 1736600 J/K/m3 | –
[2], 290.21 K | 1740600 J/K/m3 | –
[2], 290.24 K | 1732400 J/K/m3 | –
[2], 290.27 K | 1728300 J/K/m3 | –
[2], 290.44 K | 1721500 J/K/m3 | –
[2], 290.64 K | 1711900 J/K/m3 | –
[2], 290.84 K | 1707300 J/K/m3 | –
[2], 291.04 K | 1702300 J/K/m3 | –
[2], 291.24 K | 1698500 J/K/m3 | –
[2], 291.44 K | 1694500 J/K/m3 | –
[2], 291.64 K | 1693500 J/K/m3 | –
[2], 291.85 K | 1691400 J/K/m3 | –
[2], 292.05 K | 1688200 J/K/m3 | –
[2], 292.25 K | 1688500 J/K/m3 | –
[2], 292.45 K | 1685900 J/K/m3 | –
[2], 292.65 K | 1684300 J/K/m3 | –
[2], 292.85 K | 1683400 J/K/m3 | –
[2], 293.19 K | 1682100 J/K/m3 | –
[2], 293.43 K | 1680500 J/K/m3 | –
[2], 293.65 K | 1678500 J/K/m3 | –
[2], 293.88 K | 1679000 J/K/m3 | –
[2], 294.11 K | 1678400 J/K/m3 | –
[2], 294.34 K | 1676100 J/K/m3 | –
[2], 294.57 K | 1675700 J/K/m3 | –
[2], 294.8 K | 1675100 J/K/m3 | –
[2], 295.11 K | 1673900 J/K/m3 | –
[2], 295.85 K | 1672100 J/K/m3 | –
[2], 296.59 K | 1670800 J/K/m3 | –
[2], 297.34 K | 1670100 J/K/m3 | –
[2], 298.08 K | 1669100 J/K/m3 | –
[2], 298.82 K | 1667900 J/K/m3 | –
[2], 299.57 K | 1667300 J/K/m3 | –
[2], 300.31 K | 1667200 J/K/m3 | –
[2], 301.05 K | 1666300 J/K/m3 | –
[2], 301.8 K | 1666200 J/K/m3 | –
[2], 302.54 K | 1665900 J/K/m3 | –
[2], 303.29 K | 1665200 J/K/m3 | –
[2], 304.03 K | 1665100 J/K/m3 | –
[2], 304.77 K | 1665400 J/K/m3 | –
[2], 305.52 K | 1665600 J/K/m3 | –
[2], 306.26 K | 1665000 J/K/m3 | –
[2], 307 K | 1664800 J/K/m3 | –
[2], 307.75 K | 1665500 J/K/m3 | –
[2], 308.49 K | 1665600 J/K/m3 | –
[2], 309.23 K | 1665400 J/K/m3 | –
[2], 309.98 K | 1665500 J/K/m3 | –
[2], 310.72 K | 1665900 J/K/m3 | –
[2], 311.46 K | 1666400 J/K/m3 | –
[2], 312.21 K | 1666000 J/K/m3 | –
[2], 312.95 K | 1665700 J/K/m3 | –
[2], 313.69 K | 1666100 J/K/m3 | –
[2], 314.44 K | 1667100 J/K/m3 | –
[2], 315.18 K | 1666800 J/K/m3 | –
[2], 315.92 K | 1667700 J/K/m3 | –
[2], 316.67 K | 1668100 J/K/m3 | –
[2], 317.41 K | 1667700 J/K/m3 | –
[2], 318.15 K | 1667700 J/K/m3 | –
[2], 318.9 K | 1668700 J/K/m3 | –
[2], 319.64 K | 1667900 J/K/m3 | –
[2], 320.69 K | 1668700 J/K/m3 | –
[2], 321.75 K | 1669700 J/K/m3 | –
[2], 322.8 K | 1669700 J/K/m3 | –
[2], 323.86 K | 1670100 J/K/m3 | –
[2], 324.91 K | 1671400 J/K/m3 | –
